Data taken from patent US8192962B2, “Processes for detecting toxic substances” (Daikin Industries, Ltd., priority 2001, dated 2012).

System: Metabolism protein genes
Assay: DNA chip mRNA expression in yeast, metabolism protein genes (Table 7)
Format: cell-based, Saccharomyces cerevisiae S288C
Method in brief: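 Chemical exposure: 2 h, log-phase S. cerevisiae S288C, YPD, 25° C., dose set to inhibit growth without death. Profiling: mRNA labeled by reverse transcription with Cy3- or Cy5-dUTP, hybridized to whole-genome array. Output: fluorescence ratio against untreated culture.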

CCCCC[C@H](O)CC(=O)CCc1ccc(O)c(OC)c1 [(13), gingerol]
2.2: The level of expressed mRNA in the presence of chemical substance/The level of expressed mRNA in the absence of chemical substance (yeast gene YBR068C) | The level of expressed mRNA in the presence of chemical substance/The level of expressed mRNA in the absence of chemical substance (yeast gene YFL030W) | The level of expressed mRNA in the presence of chemical substance/The level of expressed mRNA in the absence of chemical substance (yeast gene YGR194C) | The level of expressed mRNA in the presence of chemical substance/The level of expressed mRNA in the absence of chemical substance (yeast gene YHR111W)
1.8: The level of expressed mRNA in the presence of chemical substance/The level of expressed mRNA in the absence of chemical substance (yeast gene YAL038W) | The level of expressed mRNA in the presence of chemical substance/The level of expressed mRNA in the absence of chemical substance (yeast gene YAL054C) | The level of expressed mRNA in the presence of chemical substance/The level of expressed mRNA in the absence of chemical substance (yeast gene YBR035C)
0.2: level of expressed mRNA in the presence/in the absence of chemical substance (yeast gene YCR034W)
2.6: The level of expressed mRNA in the presence of chemical substance/The level of expressed mRNA in the absence of chemical substance (yeast gene YFL031W) | The level of expressed mRNA in the presence of chemical substance/The level of expressed mRNA in the absence of chemical substance (yeast gene YIR034C) | The level of expressed mRNA in the presence of chemical substance/The level of expressed mRNA in the absence of chemical substance (yeast gene YJL031C)
4.7: The level of expressed mRNA in the presence of chemical substance/The level of expressed mRNA in the absence of chemical substance (yeast gene YFL056C)
2.3: The level of expressed mRNA in the presence of chemical substance/The level of expressed mRNA in the absence of chemical substance (yeast gene YER096W)
1.0: The level of expressed mRNA in the presence of chemical substance/The level of expressed mRNA in the absence of chemical substance (yeast gene YBL001C) | level of expressed mRNA in the presence/in the absence of chemical substance (yeast gene YCR010C) | The level of expressed mRNA in the presence of chemical substance/The level of expressed mRNA in the absence of chemical substance (yeast gene YDR019C) | level of expressed mRNA in the presence/in the absence of chemical substance (yeast gene YER120W) | The level of expressed mRNA in the presence of chemical substance/The level of expressed mRNA in the absence of chemical substance (yeast gene YGL022W) | level of expressed mRNA in the presence/in the absence of chemical substance (yeast gene YGL205W) | level of expressed mRNA in the presence/in the absence of chemical substance (yeast gene YGR191W) | The level of expressed mRNA in the presence of chemical substance/The level of expressed mRNA in the absence of chemical substance (yeast gene YJL088W)
4.1: The level of expressed mRNA in the presence of chemical substance/The level of expressed mRNA in the absence of chemical substance (yeast gene YER053C) | The level of expressed mRNA in the presence of chemical substance/The level of expressed mRNA in the absence of chemical substance (yeast gene YFL057C)
1.7: The level of expressed mRNA in the presence of chemical substance/The level of expressed mRNA in the absence of chemical substance (yeast gene YBR029C) | The level of expressed mRNA in the presence of chemical substance/The level of expressed mRNA in the absence of chemical substance (yeast gene YIL154C)
1.6: The level of expressed mRNA in the presence of chemical substance/The level of expressed mRNA in the absence of chemical substance (yeast gene YBR111C) | The level of expressed mRNA in the presence of chemical substance/The level of expressed mRNA in the absence of chemical substance (yeast gene YBR222C) | The level of expressed mRNA in the presence of chemical substance/The level of expressed mRNA in the absence of chemical substance (yeast gene YCL009C) | The level of expressed mRNA in the presence of chemical substance/The level of expressed mRNA in the absence of chemical substance (yeast gene YCL064C)
1.1: The level of expressed mRNA in the presence of chemical substance/The level of expressed mRNA in the absence of chemical substance (yeast gene YAL012W) | The level of expressed mRNA in the presence of chemical substance/The level of expressed mRNA in the absence of chemical substance (yeast gene YAL044C) | level of expressed mRNA in the presence/in the absence of chemical substance (yeast gene YBR020W) | level of expressed mRNA in the presence/in the absence of chemical substance (yeast gene YEL063C) | level of expressed mRNA in the presence/in the absence of chemical substance (yeast gene YGR096W)
0.7: level of expressed mRNA in the presence/in the absence of chemical substance (yeast gene YDR400W) | level of expressed mRNA in the presence/in the absence of chemical substance (yeast gene YGL115W) | level of expressed mRNA in the presence/in the absence of chemical substance (yeast gene YHR025W)
1.3: The level of expressed mRNA in the presence of chemical substance/The level of expressed mRNA in the absence of chemical substance (yeast gene YCR037C) | The level of expressed mRNA in the presence of chemical substance/The level of expressed mRNA in the absence of chemical substance (yeast gene YCR048W) | level of expressed mRNA in the presence/in the absence of chemical substance (yeast gene YDR483W) | level of expressed mRNA in the presence/in the absence of chemical substance (yeast gene YGR204W) | level of expressed mRNA in the presence/in the absence of chemical substance (yeast gene YGR288W)
1.9: The level of expressed mRNA in the presence of chemical substance/The level of expressed mRNA in the absence of chemical substance (yeast gene YER026C) | The level of expressed mRNA in the presence of chemical substance/The level of expressed mRNA in the absence of chemical substance (yeast gene YGL209W) | The level of expressed mRNA in the presence of chemical substance/The level of expressed mRNA in the absence of chemical substance (yeast gene YGR055W) | The level of expressed mRNA in the presence of chemical substance/The level of expressed mRNA in the absence of chemical substance (yeast gene YHR176W) | The level of expressed mRNA in the presence of chemical substance/The level of expressed mRNA in the absence of chemical substance (yeast gene YIL107C) | The level of expressed mRNA in the presence of chemical substance/The level of expressed mRNA in the absence of chemical substance (yeast gene YIR036C)
7.4: The level of expressed mRNA in the presence of chemical substance/The level of expressed mRNA in the absence of chemical substance (yeast gene YGL184C)
0.5: The level of expressed mRNA in the presence of chemical substance/The level of expressed mRNA in the absence of chemical substance (yeast gene YBR023C) | level of expressed mRNA in the presence/in the absence of chemical substance (yeast gene YDR408C)
0.4: level of expressed mRNA in the presence/in the absence of chemical substance (yeast gene YHR210C)
2.7: The level of expressed mRNA in the presence of chemical substance/The level of expressed mRNA in the absence of chemical substance (yeast gene YJL068C)
0.6: level of expressed mRNA in the presence/in the absence of chemical substance (yeast gene YDR073W) | level of expressed mRNA in the presence/in the absence of chemical substance (yeast gene YER081W) | The level of expressed mRNA in the presence of chemical substance/The level of expressed mRNA in the absence of chemical substance (yeast gene YHR137W)
1.5: level of expressed mRNA in the presence/in the absence of chemical substance (yeast gene YBR011C) | The level of expressed mRNA in the presence of chemical substance/The level of expressed mRNA in the absence of chemical substance (yeast gene YDL022W) | level of expressed mRNA in the presence/in the absence of chemical substance (yeast gene YDR178W) | The level of expressed mRNA in the presence of chemical substance/The level of expressed mRNA in the absence of chemical substance (yeast gene YDR487C) | The level of expressed mRNA in the presence of chemical substance/The level of expressed mRNA in the absence of chemical substance (yeast gene YEL011W) | level of expressed mRNA in the presence/in the absence of chemical substance (yeast gene YHR123W)
2.0: The level of expressed mRNA in the presence of chemical substance/The level of expressed mRNA in the absence of chemical substance (yeast gene YBR296C) | level of expressed mRNA in the presence/in the absence of chemical substance (yeast gene YDR050C) | The level of expressed mRNA in the presence of chemical substance/The level of expressed mRNA in the absence of chemical substance (yeast gene YGL248W) | The level of expressed mRNA in the presence of chemical substance/The level of expressed mRNA in the absence of chemical substance (yeast gene YIL045W) | The level of expressed mRNA in the presence of chemical substance/The level of expressed mRNA in the absence of chemical substance (yeast gene YIL155C)
1.2: level of expressed mRNA in the presence/in the absence of chemical substance (yeast gene YBR003W) | The level of expressed mRNA in the presence of chemical substance/The level of expressed mRNA in the absence of chemical substance (yeast gene YDR009W) | level of expressed mRNA in the presence/in the absence of chemical substance (yeast gene YDR277C) | level of expressed mRNA in the presence/in the absence of chemical substance (yeast gene YDR284C) | level of expressed mRNA in the presence/in the absence of chemical substance (yeast gene YDR345C) | The level of expressed mRNA in the presence of chemical substance/The level of expressed mRNA in the absence of chemical substance (yeast gene YDR410C) | The level of expressed mRNA in the presence of chemical substance/The level of expressed mRNA in the absence of chemical substance (yeast gene YDR502C) | The level of expressed mRNA in the presence of chemical substance/The level of expressed mRNA in the absence of chemical substance (yeast gene YGR282C) | The level of expressed mRNA in the presence of chemical substance/The level of expressed mRNA in the absence of chemical substance (yeast gene YIL167W)
0.3: The level of expressed mRNA in the presence of chemical substance/The level of expressed mRNA in the absence of chemical substance (yeast gene YAR071W) | level of expressed mRNA in the presence/in the absence of chemical substance (yeast gene YGL012W)
0.9: The level of expressed mRNA in the presence of chemical substance/The level of expressed mRNA in the absence of chemical substance (yeast gene YBR014C) | level of expressed mRNA in the presence/in the absence of chemical substance (yeast gene YDR123C)
2.4: The level of expressed mRNA in the presence of chemical substance/The level of expressed mRNA in the absence of chemical substance (yeast gene YER178W)
3.5: The level of expressed mRNA in the presence of chemical substance/The level of expressed mRNA in the absence of chemical substance (yeast gene YBR256C)
0.8: level of expressed mRNA in the presence/in the absence of chemical substance (yeast gene YER015W) | level of expressed mRNA in the presence/in the absence of chemical substance (yeast gene YFL011W) | level of expressed mRNA in the presence/in the absence of chemical substance (yeast gene YIL006W)
1.4: The level of expressed mRNA in the presence of chemical substance/The level of expressed mRNA in the absence of chemical substance (yeast gene YBR183W) | The level of expressed mRNA in the presence of chemical substance/The level of expressed mRNA in the absence of chemical substance (yeast gene YCR098C) | The level of expressed mRNA in the presence of chemical substance/The level of expressed mRNA in the absence of chemical substance (yeast gene YER069W)
5.3: The level of expressed mRNA in the presence of chemical substance/The level of expressed mRNA in the absence of chemical substance (yeast gene YDL021W)
2.5: The level of expressed mRNA in the presence of chemical substance/The level of expressed mRNA in the absence of chemical substance (yeast gene YDR516C)
